Data taken from PMC3071891 (Journal of inorganic biochemistry, 2010).
Like-named read-outs stand apart in the source and are kept apart here.

Tests used:
[1] = target: T1, Giardia lamblia fructose 1,6-bisphosphate aldolase (GlFBPA) (Giardia intestinalis, UniProt A8B2U2); assay: GlFBPA inhibition constants, steady-state kinetics
[2] = target: T1, Giardia lamblia fructose 1,6-bisphosphate aldolase (GlFBPA); settings: read-out: GlFBPA inhibition constant (Ki); inert substrate analog; ref [25]; cited from earlier work

T1 sequence (A8B2U2 whole entry): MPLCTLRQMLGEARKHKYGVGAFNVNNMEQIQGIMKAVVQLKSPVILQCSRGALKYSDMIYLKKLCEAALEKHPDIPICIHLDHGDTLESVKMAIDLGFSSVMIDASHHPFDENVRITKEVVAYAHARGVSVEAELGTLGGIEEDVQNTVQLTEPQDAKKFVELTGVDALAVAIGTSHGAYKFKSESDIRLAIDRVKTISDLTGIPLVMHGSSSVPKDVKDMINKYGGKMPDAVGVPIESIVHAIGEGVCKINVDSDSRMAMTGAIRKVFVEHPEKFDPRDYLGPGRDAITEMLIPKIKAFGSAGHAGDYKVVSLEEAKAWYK

Compound	Ki [1] [µM]	Ki [2] [µM]
O=c1c(O)cccn1CP(=O)(O)O [Compound 1, N-phosphonomethyl-3-hydroxy-2-pyridone]	1200 ± 200	
O=C(COP(=O)(O)O)[C@@H](O)[C@@H](O)[C@H](O)COP(=O)(O)O [TBP, tagatose 1,6-bisphosphate]		1
